Values after ≈ are worked out from the molar mass of the structure shown.
Columns and labels:
[1] = ERGO concentration found in Pinot noir wines after 18 months of bottle storage; type: physicochemical; conditions: for ERGO Found: Pinot noir wine, after 18 months bottle storage
Text: According to the invention, sulfur dioxide was replaced in whole or in part with L-ergothioneine in Pinot noir wines at bottling.

[2] = Stability over time in food and beverages; type: physicochemical; conditions: stored over a period of several years
[3] = cited from earlier work
[4] = per one unit of L-Ergothioneine; cited from earlier work
[5] = tested on: LPO formation in mouse liver; conditions: cited from earlier work
[6] = tested on: liver tissue of rats; conditions: exogenous L-ergothioneine; cited from earlier work

## C[N+](C)(C)[C@@H](Cc1c[nH]c(=S)[nH]1)C(=O)[O-] [L-ergothioneine]
[1]; SO2 added 0 mg/L, ERGO added 10 mg/L at bottling
  ERGO Found: 8.8 mg/L
[1]; SO2 added 0 mg/L, ERGO added 30 mg/L at bottling
  ERGO Found: 29.8 mg/L
[1]; SO2 added 0 mg/L, ERGO added 50 mg/L at bottling
  ERGO Found: 55.4 mg/L
[1]; SO2 added 0 mg/L, ERGO added 70 mg/L at bottling
  ERGO Found: 81.2 mg/L
[1]; Pinot noir wines, SO2 replaced in whole or in part at bottling, after 18 months of storage
  presence of ergothioneine in the wine after storage: still present in the wine
[2]
  stability over time: very stable over time
[3]
  water solubility: readily water soluble
[3]; room temperature
  solubility limit: 900 mM (≈ 206 mg/mL)
[4]
  units of Vitamin E equivalent to one unit: ~7000 units of Vitamin E
[5]
  LPO formation: inhibited LPO formation
  decomposition of existing LPO: enhanced the decomposition of existing LPO
[6]
  lipid peroxidation by toxic compounds: prevent lipid peroxidation

## O=S=O [SO2, sulfur dioxide, reference compound]
[1]; SO2 added 30 mg/L, ERGO added 0 mg/L at bottling
  ERGO Found: 7.3 mg/L
[1]; SO2 added 70 mg/L, ERGO added 0 mg/L at bottling
  ERGO Found: 7.5 mg/L

From patent US20130035361A1, “USE OF ERGOTHIONEINE AS A PRESERVATIVE IN FOODS AND BEVERAGES” (priority 2007, published 2013)
